How the values were obtained:
lymphocytes [1] = assay: Lymphocyte survival by Trypan Blue exclusion assay; assay type: cell-based, human
Description: Saliva Collection: Saliva was collected from healthy subjects, 3 males and 3 females ranging from 21-47 years of age, under non-stimulatory conditions in a quiet room during the morning between 8 am and noon. Saliva collection was performed at least 1 h after eating by spitting into a recipient for 10 minutes, as previously described (43). Following collection, saliva was immediately centrifuged at 800×g for 10 min at 4° C. to remove cells and cell debris and the resulting supernatant was used for biochemical analyses.
(§1) Lymphocyte Isolation: Blood from 10 consenting, healthy, non-smoking subjects, 5 males and 5 females ranging from 18-55 years of age, was drawn into EDTA-containing vacutainers. Lymphocytes were isolated by Ficoll-Hypaque (Sigma) gradient centrifugation according to the manufacturer's instructions and lymphocytes were suspended at 10^7 cells/ml PBS (Beit-Ha'emek Industries, Israel), and used immediately in experiments.
(§2) A reproducible vacuum was created in the flask and upon application of vacuum for 5 s, 80-100 ml of TS from the lit cigarette was drawn into the flask. […] Saliva treatment of lymphocytes was performed by suspending these in PBS supplemented with 30% (v/v) saliva. Following treatment with the TS of 0.5 cigarettes, flasks were incubated at 37° C. for 20 min in a metabolic shaker and subjected to a further 4 treatments with TS, as described above.
Measurement of Lymphocyte Survival: Lymphocyte viability was assessed by Trypan Blue exclusion assay.

lymphocytes [2] = assay: Western immunoblotting analysis of lymphocyte protein carbonylation; assay type: cell-based, human
Description: Western Immunoblotting Analysis of Protein Carbonylation: Salivary proteins were separated by SDS-PAGE using a 10% gel and electro-blotted onto nitrocellulose membranes, as previously described (14). The Oxyblot Kit (Intergen Co, Purchase N.Y.) was used with anti-dinitrophenyhydrazine (DNPH) antibodies to label carbonylated proteins. Protein carbonylation levels were then visualized by reacting labelled blots with a secondary HRP-conjugated anti-rabbit antibody followed by ECL detection of secondarily labelled proteins, as previously described (14).
as §1
as §2, with “Treatment of Lymphocytes With TS in the Presence of Saliva: Exposure of lymphocytes to TS was carried out by attaching a Time cigarette (capable of removing particles>[…] in diameter) in which the filter tip was removed to a Cambridge filter which was combined with a vacuum system to aspirate gas-phase TS inside sealed 250 ml flasks containing lymphocytes suspended in 12-15 ml PBS, as previously described (14, 15). A” for “A”
Western Immunoblotting Analysis of Lymphocyte Protein Carbonylation: Lymphocytes were washed twice in PBS following treatment by centrifugation at 2,000 rpm for 2 minutes to remove saliva and other components of the incubation medium. Lymphocytes were then centrifuged at 14,000 rpm for 1 minute and lysed by sonication for 10 seconds in lysis buffer containing 20 mM Tris pH 7.4, 1 mM EGTA, 1 mM PMSF, 50 μM NaVO4 and 50 mM NaF. Lysates were centrifuged at 14,000 rpm for 1 minute and supernatants were harvested for analysis. Carbonylation analysis was performed as described above.

oral peroxidase (OPO) [3] = assay: OPO activity in saliva exposed in vitro to tobacco smoke (NBS-SCN assay); assay type: biochemical, human
oral peroxidase (OPO) [4] = assay type: biochemical, human; details: for OPO activity in the presence of aldehydes: 2 mM acetylaldehyde, 80 μM acrolein, 20 μM crotonaldehyde, TS-treated saliva
MPO = target: T1, MPO (Homo sapiens, UniProt P05164); assay: Control MPO activity (commercial MPO) in the presence of dapsone; assay type: biochemical; details: 150 μM dapsone
T1 construct: purchased
T1 sequence (P05164 49-745): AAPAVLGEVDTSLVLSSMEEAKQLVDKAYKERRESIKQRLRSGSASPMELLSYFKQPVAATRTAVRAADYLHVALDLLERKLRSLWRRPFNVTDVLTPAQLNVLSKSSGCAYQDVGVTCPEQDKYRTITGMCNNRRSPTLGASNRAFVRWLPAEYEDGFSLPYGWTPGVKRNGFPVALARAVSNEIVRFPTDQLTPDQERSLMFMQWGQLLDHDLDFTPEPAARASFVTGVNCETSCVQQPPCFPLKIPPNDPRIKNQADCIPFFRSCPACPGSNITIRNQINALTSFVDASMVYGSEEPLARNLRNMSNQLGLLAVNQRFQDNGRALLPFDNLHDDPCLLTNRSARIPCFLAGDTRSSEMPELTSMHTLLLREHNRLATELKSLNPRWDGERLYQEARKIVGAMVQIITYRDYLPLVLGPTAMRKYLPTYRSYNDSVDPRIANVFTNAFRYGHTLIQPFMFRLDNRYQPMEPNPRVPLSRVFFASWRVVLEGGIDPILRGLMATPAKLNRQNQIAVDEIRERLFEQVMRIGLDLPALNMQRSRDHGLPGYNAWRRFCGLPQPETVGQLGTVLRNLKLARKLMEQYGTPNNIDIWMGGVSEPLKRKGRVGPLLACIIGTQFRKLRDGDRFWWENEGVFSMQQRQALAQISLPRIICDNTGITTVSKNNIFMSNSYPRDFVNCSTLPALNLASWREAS
Description: FIG. 7 is a data plot depicting the effect of increasing concentrations of dapsone (4-aminophenylsulfone) on OPO activity in TS-treated saliva. Abbreviations: NO.1, NO.2, NO.3, NO4 and NO.5 correspond to saliva from 5 different subjects and plasma corresponds to commercial MPO.
Analysis of OPO Activity: OPO activity was measured according to the 2-nitrobenzoic-thiocyanate (NBS-SCN) assay, as previously described (20). Briefly, DTNB is reduced to NBS by addition of β-mercaptoethanol and decreases in NBS concentration by reaction with OSCN^−, a product of OPO, are monitored spectrophotometrically by measuring absorbance at 412 nm at pH 5.6 (18). One unit of enzyme activity was defined as the activity required to cleave 1 μmol of NBS/min at 22° C., using a molar extinction coefficient of 12,800 (20).
Thus, in order to determine which of the MPO or SPO activity components of OPO activity are lost as a result of exposure to TS, OPO activity in TS-treated saliva was measured in the presence of increasing concentrations of 50-150 μM dapsone.

[5] = lymphocytes in PBS, 20 minutes, 80 μM acrolein, 20 μM crotonaldehyde or 2 mM acetaldehyde

With `O=C1O[C@H]([C@@H](O)CO)C(O)=C1O` [ascorbate] the lymphocyte survival rate (lymphocytes [1]; ascorbate (1 mM) added to PBS containing FeCl3 (90 μM), no saliva, 20 min (FIG. 23 column 8)) was 77% and the lymphocyte survival rate (lymphocytes [1]; ascorbate (1 mM) added to saliva-containing medium without exposure to TS, 20 min (FIG. 23 column 6)) was 78%.

With `N[C@@H](CCC(=O)N[C@@H](CS)C(=O)NCC(=O)O)C(=O)O` [GSH, L-γ-glutamyl-1-cysteine-glycine] the “effect on death rate of lymphocytes exposed to TS and saliva” value (lymphocytes [1]) was “partially prevented”, the “protection assessed by lymphocyte protein carbonylation levels” value (lymphocytes [2]; TS and saliva, 20 minutes, 1 mM agent (FIG. 20)) was “unique protection” and the “protection from aldehyde-induced protein carbonylation” value (lymphocytes [2]; aldehydes + 1 mM GSH, 20 min (FIG. 21)) was “protection provided by GSH was similar”. For the same compound, the “loss of OPO activity in TS-treated saliva in the presence or absence of the agent” value (oral peroxidase (OPO) [3]; 1 mM agent) was “similar”.

Work on `CC(=O)N(O)CCCCCNC(=O)CCC(=O)N(O)CCCCCNC(=O)CCC(=O)N(O)CCCCCN` [deferoxamine] yielded a lymphocyte survival rate (lymphocytes [1]; TS and saliva treatment, 80 minutes, 1 mM agent) of 23.7%.

For `CC=O` [acetaldehyde], the “OPO activity in the presence of aldehydes” value (“OPO activity … of aldehydes” for short) (oral peroxidase (OPO) [4]) was “unaffected” and the death rates (lymphocytes [1]; both, human) was 92.7%.

With `C/C=C/C=O` [crotonaldehyde] the “OPO activity … of aldehydes” value (oral peroxidase (OPO) [4]) was “unaffected”, the death rates (lymphocytes [1]; both, human) was 75.3% and the survival rates (lymphocytes [1]; [5]) was 80.3%.

For `C/C1=C2/[N-][C@H]([C@H](CC(N)=O)[C@@]2(C)CCC(=O)NC[C@@H](C)OP(=O)([O-])O[C@H]2[C@@H](O)[C@@H](n3cnc4cc(C)c(C)cc43)O[C@@H]2CO)[C@]2(C)N=C(/C(C)=C3N=C(/C=C4N=C1[C@@H](CCC(N)=O)C\4(C)C)[C@@H](CCC(N)=O)[C@]\3(C)CC(N)=O)[C@@H](CCC(N)=O)[C@]2(C)CC(N)=O.[Co+3].[OH-]` [OH—CO, hydroxocobalamin], the “prevention of KCN-associated loss of OPO activity” value (oral peroxidase (OPO) [4]; 1 mM OH—CO, saliva treated 2 min with 1 mM KCN) was “completely prevent”, the “prevention of loss of OPO activity in saliva” value (oral peroxidase (OPO) [3]; increasing amounts of OH—CO (0.5, 1, 2 mM, FIG. 14), 40 min after treatment with TS) was “prevent, to a significant extent” and the “prevention of loss of OPO activity by preincubation” value (oral peroxidase (OPO) [3]; preincubation of saliva with OH—CO, TS or KCN) was “could prevent both TS- and KCN-associated loss of OPO activity”.

In the case of `CC(=O)N[C@@H](CS)C(=O)O` [NAC, N-acetylcysteine], the “effect on death rate of lymphocytes exposed to TS and saliva” value (lymphocytes [1]) is reported as “did not alter the death rate”.

For `O=c1[nH]c(=O)c2[nH]c(=O)[nH]c2[nH]1` [uric acid], the “lymphocyte protein carbonylation levels” value (lymphocytes [2]; uric acid added to suspension medium instead of saliva (10 or 100 μM, FIG. 18), no TS) was “reduced carbonylation levels”.

In the case of `[Cl][Fe]([Cl])[Cl]` [FeCl3], the “inhibition of OPO activity” value (oral peroxidase (OPO) [4]; saliva exposed 2 h to 1 mM ascorbate or 100 μM FeCl3) is reported as “did not inhibit OPO activity”.

`C=CC=O` [acrolein] was tested, and the “OPO activity … of aldehydes” value (oral peroxidase (OPO) [4]) was “unaffected”, the survival rates (lymphocytes [1]; acrolein, first value of 'respectively' (taken as without saliva), time not given) was 57.9% and the survival rates (lymphocytes [1]; acrolein, second value of 'respectively' (taken as with saliva), time not given) was 66.4%. For the same compound, the survival rates (lymphocytes [1]; [5]) was 63.3%, the death rates (lymphocytes [1]; lymphocytes in PBS, 80 minutes, 80 μM acrolein, 20 μM crotonaldehyde or 2 mM acetaldehyde) was 57.3% and the “lymphocyte protein carbonylation levels” value (lymphocytes [2]; acrolein with saliva versus acrolein alone (FIG. 22: 80 μM, 20 min)) was “did not enhance carbonylation levels”.

With `Nc1ccc(S(=O)(=O)c2ccc(N)cc2)cc1` [dapsone, 4-aminophenylsulfone] the “control MPO activity” value (MPO) was “unaffected”, the “loss of OPO activity in the presence or absence of the agent” value (oral peroxidase (OPO) [3]; TS-treated saliva containing ~40% MPO, 150 μM dapsone) was “similar” and the “Loss of OPO activity” value (oral peroxidase (OPO) [3]; TS-treated saliva in the presence of 150 μM dapsone) was 60-85%.

`N#C[S-].[K+]` [KSCN, potassium thiocyanate] was tested, and the “protection against TS-induced loss of OPO activity” value (oral peroxidase (OPO) [3]) was “significant protection against loss of OPO activity”.

From patent US6789546B2, “Filters for preventing or reducing tobacco smoke-associated injury in the aerodigestive tract of a subject” (Technion Research & Development Foundation Ltd., priority 2001, dated 2004)
